Results taken from patent US9995734B2, “Human T cell line assay for evaluating the immunologic identity of glatiramer acetate preparations” (Mylan Inc., priority 2013, dated 2018).

Test system: Donor 3 COP T-Cell Lines
Experiment: ATP proliferation assay (CellTiter Glo), Donor 3 COP T-cell lines, incl. reactivity to non-canonical GA peptides
Type: cell-based, human
Conditions: for Reactivity (proliferation), Mean: Day 54 of culture

Question: Which “Mean, ATP proliferation assay” value (T-cell line 165-B10C, 3 μg/mL, Day 46, after 3 days) does the source give for glatiramer acetate [COP] here?
Answer: 8450 RLU

Question: And the “Reactivity (proliferation), Mean” value (T-cell line 165-B10C, 10 μg/mL antigen, No Antigen 2234)?
Answer: 6701 RLU

Question: And the “Mean, ATP proliferation assay” value (T-cell line 165-B10C, 10 μg/mL, Day 46, after 3 days)?
Answer: 19792 RLU

Question: And the “Reactivity (proliferation), Mean” value (T-cell line 165-B10C, 100 μg/mL antigen, No Antigen 2234)?
Answer: 6215 RLU

Question: And the “Proliferation (luminescent ATP assay), Mean” value (T-cell line 165-C4C, 1 μg/mL antigen, Day 66 of culture, 0 μg/mL 1881)?
Answer: 2357

Question: And the “Mean, ATP proliferation assay” value (T-cell line 165-C4C, 1 μg/mL, Day 39)?
Answer: 11653

Question: And the “Proliferation (luminescent ATP assay), Mean” value (T-cell line 165-C4C, 3 μg/mL antigen, Day 66 of culture, 0 μg/mL 1881)?
Answer: 7913

Question: What about the “Mean, ATP proliferation assay” value (T-cell line 165-C4C, 3 μg/mL, Day 39) of the same substance?
Answer: 28474

Question: And the “Proliferation (luminescent ATP assay), Mean” value (T-cell line 165-C4C, 10 μg/mL antigen, Day 66 of culture, 0 μg/mL 1881)?
Answer: 74558

Question: What about the “Mean, ATP proliferation assay” value (T-cell line 165-C4C, 10 μg/mL, Day 39) of the same substance?
Answer: 28262

Question: And the “Mean, ATP proliferation assay” value (T-cell line 165-C7C, 1 μg/mL, Day 39)?
Answer: 3670

Question: And the “Mean, ATP proliferation assay” value (T-cell line 165-C7C, 3 μg/mL, Day 39)?
Answer: 16527

Question: And the “Mean, ATP proliferation assay” value (T-cell line 165-C7C, 10 μg/mL, Day 39)?
Answer: 40194

Question: And the “Mean, ATP proliferation assay” value (T-cell line 165-D2C, 1 μg/mL, Day 39)?
Answer: 3955

Question: What about the “Mean, ATP proliferation assay” value (T-cell line 165-D2C, 3 μg/mL, Day 39) of the same substance?
Answer: 7378

Question: And the “Mean, ATP proliferation assay” value (T-cell line 165-D2C, 10 μg/mL, Day 39)?
Answer: 14239

Question: What about the “Reactivity (proliferation), Mean” value (T-cell line 165-D3C, 1 μg/mL antigen, No Antigen 8319) of the same substance?
Answer: 22689 RLU

Question: And the “Mean, ATP proliferation assay” value (T-cell line 165-D3C, 1 μg/mL, Day 46, after 3 days)?
Answer: 1248 RLU

Question: What about the “Reactivity (proliferation), Mean” value (T-cell line 165-D3C, 3 μg/mL antigen, No Antigen 8319) of the same substance?
Answer: 50369 RLU

Question: And the “Mean, ATP proliferation assay” value (T-cell line 165-D3C, 3 μg/mL, Day 46, after 3 days)?
Answer: 79792 RLU

Question: What about the “Reactivity (proliferation), Mean” value (T-cell line 165-D3C, 10 μg/mL antigen, No Antigen 8319) of the same substance?
Answer: 52151 RLU

Question: And the “Mean, ATP proliferation assay” value (T-cell line 165-D3C, 10 μg/mL, Day 46, after 3 days)?
Answer: 86270 RLU

Question: And the “Reactivity (proliferation), Mean” value (T-cell line 165-D3C, 100 μg/mL antigen, No Antigen 8319)?
Answer: 10140 RLU

Question: What about the “Mean, ATP proliferation assay” value (T-cell line 165-D3C, Day 32, 10 μg/mL) of the same substance?
Answer: 3362 RLU

Question: And the “Reactivity (proliferation), Mean” value (T-cell line 165-D11C, 1 μg/mL antigen, No Antigen 4571)?
Answer: 3410 RLU

Question: And the “Mean, ATP proliferation assay” value (T-cell line 165-D11C, 1 μg/mL, Day 46, after 3 days)?
Answer: 486 RLU

Question: What about the “Reactivity (proliferation), Mean” value (T-cell line 165-D11C, 3 μg/mL antigen, No Antigen 4571) of the same substance?
Answer: 6618 RLU

Question: What about the “Mean, ATP proliferation assay” value (T-cell line 165-D11C, 3 μg/mL, Day 46, after 3 days) of the same substance?
Answer: 19410 RLU

Question: And the “Reactivity (proliferation), Mean” value (T-cell line 165-D11C, 10 μg/mL antigen, No Antigen 4571)?
Answer: 15652 RLU

Question: And the “Mean, ATP proliferation assay” value (T-cell line 165-D11C, 10 μg/mL, Day 46, after 3 days)?
Answer: 42017 RLU

Question: And the “Reactivity (proliferation), Mean” value (T-cell line 165-D11C, 100 μg/mL antigen, No Antigen 4571)?
Answer: 12958 RLU

Question: What about the “Mean, ATP proliferation assay” value (T-cell line 165-D11C, Day 32, 10 μg/mL) of the same substance?
Answer: 525 RLU

Question: What about the “Reactivity (proliferation), Mean” value (T-cell line 165-E3C, 1 μg/mL antigen, No Antigen 2797) of the same substance?
Answer: 2592 RLU

Question: And the “Mean, ATP proliferation assay” value (T-cell line 165-E3C, 1 μg/mL, Day 46, after 3 days)?
Answer: 364 RLU

Question: What about the “Reactivity (proliferation), Mean” value (T-cell line 165-E3C, 3 μg/mL antigen, No Antigen 2797) of the same substance?
Answer: 14394 RLU

Question: And the “Mean, ATP proliferation assay” value (T-cell line 165-E3C, 3 μg/mL, Day 46, after 3 days)?
Answer: 23785 RLU

Question: What about the “Reactivity (proliferation), Mean” value (T-cell line 165-E3C, 10 μg/mL antigen, No Antigen 2797) of the same substance?
Answer: 39495 RLU

Question: What about the “Mean, ATP proliferation assay” value (T-cell line 165-E3C, 10 μg/mL, Day 46, after 3 days) of the same substance?
Answer: 51822 RLU

Question: What about the “Reactivity (proliferation), Mean” value (T-cell line 165-E3C, 100 μg/mL antigen, No Antigen 2797) of the same substance?
Answer: 20538 RLU

Question: And the “Mean, ATP proliferation assay” value (T-cell line 165-E3C, Day 32, 10 μg/mL)?
Answer: 3778 RLU

Question: And the “Reactivity (proliferation), Mean” value (T-cell line 165-F3C, 1 μg/mL antigen, No Antigen 3150)?
Answer: 7777 RLU

Question: What about the “Proliferation (luminescent ATP assay), Mean” value (T-cell line 165-F3C, 1 μg/mL antigen, Day 77 of culture, 0 μg/mL 1563) of the same substance?
Answer: 5027

Question: What about the “Reactivity (proliferation), Mean” value (T-cell line 165-F3C, 3 μg/mL antigen, No Antigen 3150) of the same substance?
Answer: 36331 RLU

Question: And the “Proliferation (luminescent ATP assay), Mean” value (T-cell line 165-F3C, 3 μg/mL antigen, Day 77 of culture, 0 μg/mL 1563)?
Answer: 32906

Question: And the “Mean, ATP proliferation assay” value (T-cell line 165-F3C, 3 μg/mL, Day 46, after 3 days)?
Answer: 75407 RLU

Question: And the “Reactivity (proliferation), Mean” value (T-cell line 165-F3C, 10 μg/mL antigen, No Antigen 3150)?
Answer: 44047 RLU

Question: And the “Proliferation (luminescent ATP assay), Mean” value (T-cell line 165-F3C, 10 μg/mL antigen, Day 77 of culture, 0 μg/mL 1563)?
Answer: 62888

Question: And the “Mean, ATP proliferation assay” value (T-cell line 165-F3C, 10 μg/mL, Day 46, after 3 days)?
Answer: 85442 RLU

Question: What about the “Reactivity (proliferation), Mean” value (T-cell line 165-F3C, 100 μg/mL antigen, No Antigen 3150) of the same substance?
Answer: 9932 RLU

Question: And the “Mean, ATP proliferation assay” value (T-cell line 165-F3C, Day 32, 10 μg/mL)?
Answer: 1141 RLU

Question: And the “Reactivity (proliferation), Mean” value (T-cell line 165-F6C, 1 μg/mL antigen, No Antigen 2189)?
Answer: 13418 RLU

Question: And the “Reactivity (proliferation), Mean” value (T-cell line 165-F6C, 3 μg/mL antigen, No Antigen 2189)?
Answer: 38973 RLU

Question: What about the “Mean, ATP proliferation assay” value (T-cell line 165-F6C, 3 μg/mL, Day 46, after 3 days) of the same substance?
Answer: 31382 RLU

Question: And the “Reactivity (proliferation), Mean” value (T-cell line 165-F6C, 10 μg/mL antigen, No Antigen 2189)?
Answer: 39560 RLU

Question: What about the “Mean, ATP proliferation assay” value (T-cell line 165-F6C, 10 μg/mL, Day 46, after 3 days) of the same substance?
Answer: 34071 RLU

Question: What about the “Reactivity (proliferation), Mean” value (T-cell line 165-F6C, 100 μg/mL antigen, No Antigen 2189) of the same substance?
Answer: 4332 RLU

Question: What about the “Mean, ATP proliferation assay” value (T-cell line 165-F6C, Day 32, 10 μg/mL) of the same substance?
Answer: 1484 RLU

Question: And the “response in proliferation assay” value (all seven Donor 3 COP T-cell lines tested, Day 54)?
Answer: responded well

Question: And the “reactivity in confirmatory ATP proliferation assay” value (six Donor 3 COP lines, Day 32, 10 μg/mL (Table 23))?
Answer: showed reactivity
